The source of these data is patent publication US8071540B2, “Virus derived antimicrobial peptides” (priority 2007, dated 2011).

Where no end group is shown, it is not given here.

In the test the test system is Burkholderia cepacia. Type of test: cell-based. Conditions: 25 μM peptide, organisms surviving, FIG. 8.

“RWIRVVQRWCRAIRHIWRRIRQGLRRWLRVV [WLSA-5, RWIRVVQRWCRAIRHIWRRIRQGLRRWLRVV]”: the “killing of B. cepacia genomovars compared with LL37” value is recorded as “equal to or better than LL-37 at killing all bacterial strains”.
